This is an account of results in US11458138B2 (Novartis AG, priority 2017, dated 2022).

The term IC50 denotes the midpoint of a concentration-inhibition curve.

“Also recorded” adds a separate entry of the source.

One test deals with Cyr61 mRNA in liver. As to the kind of experiment: In vivo treatment of mice: quantitative RT-PCR, Cyr61. As to conditions: mouse liver, single oral dose 10 mg/kg, 2 h post-dose, relative to vehicle, mean+/-SEM. The procedure:
(§1) All animal studies were carried out in accordance with federal, state, local and institutional guidelines governing the use of laboratory animals in research. Male C57BL/6J mice (age 8-10 weeks) were purchased from Jackson Labs (Bar Harbor, Me.). Example 46 was formulated for oral dosing at 3 mg/ml, and Example 261 at 1 mg/ml, in a suspension of methylcellulose:Tween80:Water (0.5:0.5:99). Single oral dose of either compound was at 10 mL/kg body weight. Blood and liver tissue were collected under deep anesthesia (isoflurane) at either 2 h post-dose (for mRNA analysis) or 24 h post-dose (for immunohistochemistry).
Total liver RNA was isolated from tissue after storage in RNAlater reagent (Qiagen), using a TRIzol method according to the manufacturer's instructions (Life Technologies). Relative mRNA abundance was measured by quantitative RT-PCR using TaqMan gene expression assays and reagents according to standard protocols (Applied Biosystems). Mouse probes for YAP target genes were CTGF (Mm01192933_g1) and Cyr61 (Mm00487498_m1). […] Relative changes in mRNA were calculated by the ΔΔCt method. Changes in gene expression with compound treatment are expressed as fold-change relative to the vehicle group.

The subject of test [1] is Ki67-positive hepatocytes. As to the kind of experiment: In vivo treatment of mice: immunohistochemistry (IHC) for Ki67 in liver. As to conditions: mouse liver, single oral dose 10 mg/kg, 24 h post-dose, relative to vehicle, mean+/-SEM. The procedure: as §1
Liver tissue was fixed in 10% neutral buffered formalin for 24-48 h. Processing and embedding in paraffin was by standard procedures. Sections were cut at 5 microns thickness and stained using a Ventana automated system. Primary antibody for mouse Ki67 was a rabbit IgG (Bethyl Labs). Ki67-positive hepatocytes were quantified by image analysis using the HALO platform. At least 3 sections per animal were analyzed, from the middle of the medial lobe.

Test [2] has as its system pYAP (Ser127) in human HaCaT cells. As to the kind of experiment: Target Identification Assay: western blot for pYAP in HaCaT cell lysates. Type of test: cell-based. As to conditions: 9 μM for 1 hour in the presence of 0.5 μM Okadaic acid. Here is the method: Compounds of Formula A1, or subformulae thereof, selectively target LATS1/2 versus MST1/2 kinases. To identify the target of the hits from the YAP translocation assay screen, the Target Identification Assay as described in the Examples Section A was performed. The results of the assay are described in FIGS. 33A to 33C.
It is consistent with the consensus in the field that LATS is responsible for YAP phosphorylation.
For orientation: Immunoblotting shows a protein as a band on a membrane.

In another test the target is LATS1 (Homo sapiens (Human), UniProt O95835). Nature of the test: Target Identification Assay: inhibition of LATS1 activity (FIG. 33C). It is filed as biochemical. As to conditions: read-out: IC50 against LATS1. An excerpt: The result further confirmed that the compounds of the invention are potent inhibitors of the LATS kinases.
For another test, the system named is YAP target gene Cyr61. Nature of the test: In Vivo PD Assay: YAP target gene expression in mouse excisional wounds. As to conditions: mouse full-thickness excisional wounds, topical 0.2 and 2 mg/mL, two daily doses, vs vehicle, dose-dependent. The procedure:
The compounds of the invention also activate the YAP pathway in vivo. A study of YAP pathway target gene expression was conducted in an in vivo mouse model as described in the In Vivo PD Assay in the Examples Section A. Two full-thickness excisional wounds on the dorsum of an anesthetized mouse were treated topically with vehicle, or 0.2 and 2 mg/mL of Example 133. After two daily doses, the skin samples around the wound edge were collected and Taqman analyses were performed using Cyr61 and Gapdh probes. mRNA expression levels for the target genes were normalized to Gapdh mRNA levels and plotted against the concentration of Example 133 in FIG. 34. […] The result is consistent with known LATS biology for activation of the YAP pathway.

Test [3] deals with human keratinocytes (HaCaT). As to the kind of experiment: In vitro YAP pathway activation and cell proliferation in human keratinocytes (HaCaT). Type of test: cell-based. An excerpt:
Accordingly, Example 133 is useful in promoting skin regeneration.

Test [4] concerns Corneal Endothelial Cells (CECs). Nature of the test: ZO-1 immunolabelling of expanded CECs. It is filed as cell-based, human. As to conditions: vs vehicle DMSO. An excerpt:
CECs proliferated in the presence of the vehicle alone (DMSO) show signs of polymegatism characteristic of dysfunctional CECs (FIG. 18a).
(2) The cells are able to form tight junctions. This may be checked by a standard technique known in the art, immunofluorescence staining of tight-junction marker Zonula Occludens-1 (ZO-1).
(3) The cells are able to be regularly arranged in the cell layer. This may be checked by a standard technique known in the art, immunofluorescence staining of tight-junction marker Zonula Occludens-1 (ZO-1).

Test [5] deals with corneal endothelial cell population. Nature of the test: Quantitative RT-PCR of expanded corneal endothelial cell population. It is filed as cell-based, human. An excerpt: (2) The cells express one or more of Collagen 8a2, AQP1 (aquaporin 1) and SLC4A11 (Solute Carrier Family 4 Member 11). […] The expression of Collagen 8a2, AQP1 or SLC4A11 may be estimated by standard techniques known in the art, such as for example immunohistochemistry, quantitative RT-PCR or by FACS analysis.
The expression of RPE65 and CD31 may be estimated by standard techniques known in the art, such as for example quantitative RT-PCR, immunohistochemistry or FACS analysis.

Test [6] has the same test system. Nature of the test: Immunohistochemical analysis of expanded corneal endothelial cell population. Type of test: cell-based, human. An excerpt:
(1) The cells express Na/K ATPase. The expression of Na/K ATPase may be estimated by standard techniques known in the art, such as for example immunohistochemistry, quantitative RT-PCR or by FACS analysis.

Test [7] concerns human corneal endothelial cells (CECs). As to the kind of experiment: CEC population expansion, immunohistochemical observation of cellular morphology (ZO-1). It is filed as cell-based. As to conditions: 10 micromolar, 10 days. Here is the method: Cells were cultured at 37° C. in 5% CO2 for 10 days.
In order to observe that the expanded cell population has the required cellular morphology for use in vivo, the ability of the cells to form tight junctions was measured by immunohistochemistry as follows. Cell cultures were fixed with 4% PFA for 20 minutes, permeabilized and blocked in a blocking solution of 0.3% Triton X-100 (Sigma-Aldrich) and 3% donkey serum in PBS for 30 minutes. Cells were then labeled with primary antibody in the blocking solution for 12 hours at 4° C. Primary antibody used was ZO-1 from Invitrogen. Samples were washed in PBS three times and donkey-raised secondary antibody Alexa Fluor 488 (Molecular Probes) at 1:500 dilution were applied for 30 minutes at room temperature. Cells were washed three times in PBS and nuclei (DNA) were stained with Sytox Orange (567 nm, Life Technologies). […] Fluorescence was observed using a Zeiss LSM 880 confocal microscope.

LATS1, sequence (O95835 whole entry): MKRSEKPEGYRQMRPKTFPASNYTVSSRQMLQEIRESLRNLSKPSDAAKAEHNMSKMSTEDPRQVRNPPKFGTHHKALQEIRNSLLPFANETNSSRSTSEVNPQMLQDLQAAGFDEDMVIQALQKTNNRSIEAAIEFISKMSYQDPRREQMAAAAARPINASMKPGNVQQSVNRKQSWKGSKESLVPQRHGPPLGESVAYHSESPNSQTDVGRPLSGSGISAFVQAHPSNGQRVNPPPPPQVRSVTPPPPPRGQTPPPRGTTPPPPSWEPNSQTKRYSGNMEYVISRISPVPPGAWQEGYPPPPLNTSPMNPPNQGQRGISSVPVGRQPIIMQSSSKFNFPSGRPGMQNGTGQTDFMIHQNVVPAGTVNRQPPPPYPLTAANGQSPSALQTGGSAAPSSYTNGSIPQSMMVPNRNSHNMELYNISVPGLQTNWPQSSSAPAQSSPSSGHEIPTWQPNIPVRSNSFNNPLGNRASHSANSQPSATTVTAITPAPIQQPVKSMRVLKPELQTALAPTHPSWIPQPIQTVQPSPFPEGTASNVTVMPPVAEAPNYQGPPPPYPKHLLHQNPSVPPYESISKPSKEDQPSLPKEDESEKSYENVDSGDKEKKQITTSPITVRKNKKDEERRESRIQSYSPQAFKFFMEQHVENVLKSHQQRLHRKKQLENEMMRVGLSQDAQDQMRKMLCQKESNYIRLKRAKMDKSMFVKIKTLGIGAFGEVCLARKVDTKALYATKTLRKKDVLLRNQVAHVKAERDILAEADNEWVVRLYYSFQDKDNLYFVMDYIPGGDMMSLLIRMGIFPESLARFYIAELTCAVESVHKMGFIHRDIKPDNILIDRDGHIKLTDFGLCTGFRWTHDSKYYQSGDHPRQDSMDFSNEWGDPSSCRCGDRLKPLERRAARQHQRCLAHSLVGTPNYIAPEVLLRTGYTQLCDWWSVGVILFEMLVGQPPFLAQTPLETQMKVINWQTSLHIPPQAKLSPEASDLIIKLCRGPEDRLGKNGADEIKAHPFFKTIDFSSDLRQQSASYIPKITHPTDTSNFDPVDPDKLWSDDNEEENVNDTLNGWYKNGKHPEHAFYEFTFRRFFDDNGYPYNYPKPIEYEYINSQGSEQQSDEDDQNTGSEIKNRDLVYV

For `CC(C)(C)Nc1cc(-c2ccncc2)nc2cnccc12` [Example 261, N-(tert-butyl)-2-(pyridin-4-yl)-1,7-naphthyridin-4-amine], the “Cyr61 mRNA (fold-change)” value with Cyr61 mRNA in liver is 3.9 (+/−0.6) fold-change. The “Ki67 IHC (fold-change)” value in test [1] is 3.1 (+/−0.5) fold-change.

With `Cc1n[nH]cc1-c1nc(NC2(C)CC2)c2ccncc2n1` [Example 133, 2-(3-methyl-1H-pyrazol-4-yl)-N-(1-methylcyclopropyl)pyrido[3,4-d]pyrimidin-4-amine], the “pYAP by western blot” value in test [2] was “dramatically inhibited”. The IC50 at LATS1 was found to be 1.3 nM. For the same molecule, the “YAP target gene Cyr61 mRNA normalized to Gapdh” value in the test with YAP target gene Cyr61 is “significantly up-regulated; also recorded: induced YAP target gene expression”. Further, in test [3], the “YAP pathway activation in vitro” value is “activated the YAP pathway” and the “cell proliferation in human keratinocytes (HaCaT)” value was “promoted cell proliferation”.

For the molecule `CC(C)(O)CC(C)(C)Nc1nc(-c2ccncc2)nc2cnccc12` [Example 49, 2,4-dimethyl-4-{[2-(pyridin-4-yl)pyrido[3,4-d]pyrimidin-4-yl]amino}pentan-2-ol], in test [4], the “tight junctions, cell size and morphology of CECs (ZO-1)” value is “form tight junctions, an endothelial structure and retain a normal cell size and morphology”. Also, in test [5], the “expression of Collagen 8a2, AQP1, SLc4A11 by quantitative RT-PCR” value is on record as “express genes normally expressed by corneal endothelial cells in vivo”; the “expression of RPE65 and CD31 by quantitative RT-PCR” value is “do not express markers of other epithelia present in the eye”. In addition, the “expression of Na/K ATPase and Collagen 8a2 by immunohistochemistry” value in test [6] is “express genes normally expressed by corneal endothelial cells in vivo”. In test [7], the “CEC morphology and tight junctions (ZO-1)” value was “retained a normal corneal endothelial cell morphology and the ability to form tight junctions”.
